Assay results as given in PubChem BioAssay AID720588 (Broad Institute, 2013).
Values joined by “and” are separate entries in the source; they are usually repeats but may differ in a detail not shown here. Equal values may be shown once.

What follows are compounds tested on HEK293T viability, CellTiter-Glo ATP luminescence, 72 h (assay: HEK293T cell cytotoxicity, dose response, cytotoxicity control, CellTiter-Glo luminescence, cherry-pick, set 3 (AID 720588);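 note: potency for luminescence loss meaning cytotoxic compounds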).
For `Cc1ccc(/C=N/Nc2ccc3ccccc3n2)o1`, the AC35 was 15.5 µM. Compound `Cc1nc(N)nc(N)c1CCCc1ccc(Cl)c(Cl)c1` has an AC35 of 3.58 µM. Work on `C[C@H]1CN([C@@H](C)CO)C(=O)c2cc(NS(=O)(=O)c3ccc(Cl)cc3)ccc2O[C@H]1CN(C)Cc1ccc(Cl)c(Cl)c1` yielded an AC35 of 16.5 µM. Compound `N#C[C@@H]1[C@H](c2ccc(C#Cc3ccc(F)cc3)cc2)[C@@H](CO)N1C(=O)Nc1ccc(F)cc1` has an AC35 of 12.6 µM. Work on `Oc1c(Cl)cc(Cl)c(Cl)c1Cc1c(O)c(Cl)cc(Cl)c1Cl` yielded an AC35 of 11.4 µM. `N/C(=C\C(=O)c1cc(Cl)ccc1O)C(Cl)(Cl)Cl` gave an AC35 of 14.7 µM. Work on `CC(C)N1C/C(=C/c2cccnc2)C(=O)/C(=C/c2cccnc2)C1` yielded an AC35 of 18.7 µM. `CC(C)N1C/C(=C/c2ccsc2)C(=O)/C(=C/c2ccsc2)C1` showed an AC35 of 7.95 µM. Work on `C[C@@H]1CN([C@@H](C)CO)C(=O)c2cc(NC(=O)c3ccccc3)ccc2O[C@@H](C)CCCCO[C@H]1CN(C)C(=O)Nc1cccc2ccccc12` yielded an AC35 of 0.637 µM. Work on `O=C1NC(=O)N(Cc2ccccc2)C(=O)/C1=C\C=C\c1ccco1` yielded an AC35 of 12.9 µM. `C=CCOC(=O)c1sc(NC(=O)c2ccc(OC)cc2)nc1C` gave an AC35 of 0.901 µM. For `COc1cccc(O)c1CN1CCC(C(=O)Nc2ccc(-c3cccc(C)c3)cc2)CC1`, the AC35 was 11.8 µM. Compound `C(=NNc1ccc2ccccc2n1)c1ccccn1` has an AC35 of 1.62 µM. `COC(=O)Cc1[nH]n(-c2nc3ccccc3s2)c(=O)c1C(C)=Nc1ccc(OC)cc1` showed an AC35 of 14 µM. `O=C(CCc1ccccc1)NC(c1cccs1)c1cc(Cl)c2cccnc2c1O` (centres undefined) was tested, and the AC35 was 7.93 µM. In the case of `Cc1ccc2nc(-c3ccccc3)nn2c1`, the AC35 is reported as 11.7 µM. `COc1cccc(-c2cc(NC=O)c3ncc(-c4ccc(C(C)=O)cc4)n3c2)c1` showed an AC35 of 8.98 µM. `CCc1ccc(N2C=C(C(=O)OC)C(c3ccc(OC)cc3)C(C#N)=C2N)cc1` (centres undefined) showed an AC35 of 10.6 µM. For `C(=Cc1cnc2ccccc2n1)c1ccc2c(c1)OCO2`, the AC35 was 5.29 µM. Work on `C=C1C(=O)O[C@@H]2[C@H]1[C@@H](OC(=O)/C(C)=C/C)C/C(C)=C\C(=O)/C=C(\C)[C@@H]2O` yielded an AC35 of 7.47 µM. Work on `C[C@@H]1CN([C@@H](C)CO)C(=O)c2cccc(NS(=O)(=O)c3ccccc3)c2O[C@@H]1CN(C)Cc1ccc(C(=O)Nc2ccccc2N)cc1` yielded an AC35 of 2.29 µM. For `O=c1c2ccccc2nc(/C=C/c2cc(Br)ccc2O)n1CCCO`, the AC35 was 14.4 µM. `C[C@@H]1CN([C@@H](C)CO)C(=O)Cc2cc(N(C)C)ccc2O[C@H]1CN(C)Cc1ccc(C(=O)Nc2ccccc2N)cc1` showed an AC35 of 7.46 µM. `COC1C(O)C(C)OC(OC2C(Oc3cccc4c(O)c5c(=O)oc6ccc(C)c7c(=O)oc(c34)c5c67)OC(C)C(O)C2O)C1O` (centres undefined) gave an AC35 of 15.1 µM. Work on `Nc1nc(N)c2cc(Sc3ccc4ccccc4c3)ccc2n1` yielded an AC35 of 4.44 µM. Compound `C/C(=C\c1ccccc1)C(=O)N1CCC=CC1=O` has an AC35 of 22.3 µM. `COc1ccc(S(=O)(=O)Nc2ccc3c(c2)C(=O)N([C@H](C)CO)C[C@@H](C)[C@@H](CN(C)Cc2ccc(C(=O)Nc4ccccc4N)cc2)O3)cc1` was tested, and the AC35 was 15 µM. `Nc1nc(=S)c2ncn([C@@H]3O[C@H](CO)[C@@H](O)[C@H]3O)c2[nH]1` showed an AC35 of 7.33 µM. With `CN1C2CCC1/C(=C/c1ccccn1)C(=O)/C2=C\c1ccccn1` the AC35 was 1.1 µM. Compound `C[C@@H]1CCCCO[C@H](CN(C)Cc2ccc(C(F)(F)F)cc2)[C@H](C)CN([C@H](C)CO)C(=O)c2cc(NC(=O)CCCN(C)C)ccc2O1` has an AC35 of 14.6 µM. `Cc1ccc(/C=N/Nc2ccnc3cc(Cl)ccc23)c(C)c1` was tested, and the AC35 was 10.6 µM. With `C=C(C(=O)c1ccccc1)C(C)C(=C)C(=O)c1ccccc1` the AC35 was 5.24 µM. Work on `C[C@@H]1CN([C@@H](C)CO)C(=O)c2cc(NC(=O)Nc3ccccc3)ccc2O[C@@H]1CN(C)Cc1ccc(C(=O)Nc2ccccc2N)cc1` yielded an AC35 of 8.46 µM. With `Oc1[nH]c2ccc(Br)cc2c1N=NC(=S)N1CCOCC1` the AC35 was 4.31 µM. Compound `CCN1/C(=C/C(C)=C/c2sc3ccccc3[n+]2CC)Sc2ccccc21` has an AC35 of 0.301 µM. In the case of `C[C@@H]1CN([C@H](C)CO)C(=O)c2cc(N(C)C)ccc2O[C@H]1CN(C)Cc1ccc(C(=O)Nc2ccccc2N)cc1`, the AC35 is reported as 16.5 µM. In the case of `C[C@@H]1CCCCO[C@H](CN(C)Cc2ccc(C(=O)Nc3ccccc3N)cc2)[C@@H](C)CN([C@H](C)CO)C(=O)c2cc(NS(=O)(=O)c3ccc(Cl)cc3)ccc2O1`, the AC35 is reported as 17.3 µM. `C[C@H]1O[C@@H](O[C@H]2[C@@H](O)C[C@H](O[C@H]3[C@@H](O)C[C@H](O[C@H]4CC[C@@]5(C)[C@H](CC[C@@H]6[C@@H]5C[C@@H](O)[C@]5(C)[C@@H](C7=CC(=O)OC7)CC[C@]65O)C4)O[C@@H]3C)O[C@@H]2C)C[C@H](O)[C@@H]1O` gave an AC35 of 0.0823 µM. `CC(=O)OC1CC(OC2C(O)CC(OC3C(O)CC(OC4CCC5(C)C(CCC6C5CCC5(C)C(C7=CC(=O)OC7)CCC65O)C4)OC3C)OC2C)OC(C)C1OC1OC(CO)C(O)C(O)C1O` (centres undefined) was tested, and the AC35 was 0.0583 µM. `Cc1nc(N)nc(N)c1/C=C/C(C)(C)c1ccc(Cl)cc1` gave an AC35 of 0.0229 µM. For `CC1OC(OC2CC(O)C3(CO)C4C(O)CC5(C)C(C6=CC(=O)OC6)CCC5(O)C4CCC3(O)C2)C(O)C(O)C1O` (centres undefined), the AC35 was 0.0877 µM. Compound `CN(C)c1ccc(C=c2c3ccccc3n3c2c2c([n+]3C)CCCC2)cc1` has an AC35 of 2.08 µM. In the case of `C=CC[n+]1c(-c2ccc(C)cc2)csc1Nc1ccc(NC(C)=O)cc1`, the AC35 is reported as 12.5 µM. `O=c1ccc2[n+]([O-])c3ccc(O)cc3oc-2c1` gave an AC35 of 4.57 µM. With `COc1ccc(CC(N)c2csc(NC(=O)Nc3cccc(C(F)(F)F)c3)n2)cc1` (centres undefined) the AC35 was 10.1 µM. With `COc1ccc(-c2ccc3c(c2)[C@H]2[C@H](CCN2S(=O)(=O)c2ccc(OC)cc2)[C@@H](CO)N3C)cc1` the AC35 was 24.5 µM. In the case of `CC1=NN(c2ccccc2)C(=O)/C1=C\C=C\c1ccccc1`, the AC35 is reported as 19.6 µM. Compound `CCN(Cc1ccccc1)c1ccc(/C=N/N=C(N)N)cc1` has an AC35 of 13.2 µM. `COc1ccc(OC)c(-c2nnc3n2N=C(c2ccc(OC)c(OC4CCCC4)c2)CS3)c1` was tested, and the AC35 was 11.6 µM. For `O=C1NC(=O)N(Cc2ccco2)C(=O)/C1=C/C=C/c1ccco1`, the AC35 was 13.7 µM. In the case of `C[C@@H]1CN([C@@H](C)CO)C(=O)c2cccc(NS(=O)(=O)c3ccc(Cl)cc3)c2O[C@@H]1CN(C)Cc1ccc(C(=O)Nc2ccccc2N)cc1`, the AC35 is reported as 6.6 µM. `O=C1c2ccccc2C(=O)c2cc(N3CCCCC3)ccc21` was tested, and the AC35 was 6.31 µM. For `C=C1C(=O)[C@@]23[C@H](O)C[C@@H]4C(C)(C)CC[C@H](O)[C@@]4(C)[C@@H]2CC[C@@H]1[C@H]3O`, the AC35 was 6.9 µM. `C[C@@H]1CN([C@@H](C)CO)C(=O)c2cc(N(C)C)ccc2O[C@H]1CN(C)Cc1ccc(C(=O)Nc2ccccc2N)cc1` was tested, and the AC35 was 24.6 µM. In the case of `C[C@@H]1O[C@@H](O[C@H]2C[C@@H](O)[C@]3(CO)[C@@H]4C(CC[C@]3(O)C2)[C@@]2(O)CC[C@H](C3COC(=O)C3)[C@@]2(C)C[C@H]4O)[C@H](O)[C@H](O)[C@H]1O` (some centres undefined), the AC35 is reported as 2.43 µM. `CCc1cccc2c(C(=O)CN3C(=O)NC4(CCCCC4)C3=O)c[nH]c12` showed an AC35 of 11.6 µM. Compound `CC(=O)Nc1ccc(S(=O)(=O)Nc2ccc(N3CCCCC3)cc2)cc1` has an AC35 of 22.1 µM. Work on `CC(=O)Oc1ccc(-c2ccc(C(=O)Nc3cccc(S(=O)(=O)N4CCOCC4)c3)cc2)cc1` yielded an AC35 of 0.274 µM. `CN=c1scc(-c2ccccc2F)n1/N=C/c1ccc[nH]1` was tested, and the AC35 was 10.8 µM. With `CCOc1cc(/C=N/Nc2cc(C)nc(-n3nc(C)cc3C)n2)ccc1O` the AC35 was 4.12 µM. With `O=C(NC[C@@H]1N[C@@H](CO)[C@H]1c1ccc(C2=CCCCC2)cc1)c1cccc(F)c1` the AC35 was 10.1 µM. `Nc1nc(N)c(-c2cccc(C(F)(F)F)c2)c(Cc2cccc(C(F)(F)F)c2)n1` showed an AC35 of 8.95 µM. `CC(=O)OC1CC(OC2C(O)CC(OC3C(O)CC(OC4CCC5(C)C(CCC6C5CCC5(C)C(C7=CC(=O)OC7)C(O)CC65O)C4)OC3C)OC2C)OC(C)C1OC1OC(CO)C(O)C(O)C1O` (centres undefined) showed an AC35 of 0.58 µM. Work on `COC(=O)C1=C(C)N(Cc2ccccc2C(F)(F)F)C(=NCc2ccc(OC)cc2)NC1c1ccc(C(F)(F)F)cc1` (centres undefined) yielded an AC35 of 9.47 µM. For `C[C@H](CO)N1C[C@H](C)[C@@H](CN(C)Cc2ccc(C(F)(F)F)cc2)OCCCC[C@H](C)Oc2ccc(NS(=O)(=O)c3ccc(F)cc3)cc2C1=O`, the AC35 was 15.1 µM. For `C[C@]12CCC3C(CCC4=CC(O)CC[C@@]43/C=N/O)C1(O)CCC2C1=CC(=O)OC1` (some centres undefined), the AC35 was 0.694 µM. For `Cc1ccc(S(=O)(=O)Nc2ccc3c(c2)C(=O)N([C@@H](C)CO)C[C@@H](C)[C@@H](CN(C)Cc2ccc(C(=O)Nc4ccccc4N)cc2)O3)cc1`, the AC35 was 7.11 µM. With `COc1ccc(/C=C(/C(=O)c2cccs2)N2C=CC=CC2=C(C#N)C#N)cc1` the AC35 was 6.97 µM. With `CN=c1scc(-c2cccs2)n1/N=C/c1ccccc1O` the AC35 was 10.5 µM. Work on `O=C(Nc1ccc2c(c1)OCO2)N1C[C@@H]2N[C@H](C1)C2c1ccc(C=Cc2ccccc2)cc1` (some centres undefined) yielded an AC35 of 9.59 µM. In the case of `COc1ccccc1C(CCNCc1ccc(N(C)C)cc1)c1ccc(OC(C)C)cc1` (centres undefined), the AC35 is reported as 10.7 µM. `O=C1NC(=S)NC(=O)C1=Cc1cccn1-c1ccc(O)cc1` showed an AC35 of 19.5 µM. With `CCCCCCCCNC(C)C(O)c1ccc(SC(C)C)cc1` (centres undefined) the AC35 was 12.2 µM. `Cc1cc(C)cc(N2C(=O)NC(=O)/C(=C\C=C\c3ccco3)C2=O)c1` showed an AC35 of 10.6 µM. With `C=C(C(=O)c1ccccc1)C(C(=C)C(=O)c1ccccc1)c1ccc(OC)cc1` the AC35 was 5.68 µM. For `O=C1Nc2cc(C(=O)NCCN3CCCCCC3)ccc2S/C1=C\c1ccccc1`, the AC35 was 11.7 µM. Work on `O=C(Nc1ccc(Br)cc1)c1ccc(F)c(S(=O)(=O)N2CCN(c3ccccn3)CC2)c1` yielded an AC35 of 8.36 µM. `CC1(C)N=C(N)N=C(N)N1c1ccc(OCCCOc2ccccc2)c(Cl)c1` was tested, and the AC35 was 11.1 µM. `O=C(O)c1ccc(N/N=C/c2ccc3c(c2)OCO3)cc1` was tested, and the AC35 was 7.33 µM. Work on `COC1C(C)OC(OC2CC(C)(O)Cc3cc4c(c(O)c32)C(=O)c2c(O)cc3c(c2C4=O)OC2OC3(C)C(O)C(N(C)C)C2O)C(OC)C1(C)OC` (centres undefined) yielded an AC35 of 0.128 µM. Compound `C[C@H](CO)N1C[C@H](C)[C@H](CN(C)Cc2ccc(C(=O)Nc3ccccc3N)cc2)Oc2ccc(NC(=O)C3CC3)cc2CC1=O` has an AC35 of 3.6 µM. `O=C1/C(=C\c2ccccc2)CN(C(=O)CCN2CCCCC2)C/C1=C/c1ccccc1` showed an AC35 of 5.13 µM. Compound `N#CC(=C1C=CC(=NO)C(Cl)=C1)c1ccccc1` has an AC35 of 11.2 µM. `Nc1ccc(Oc2cccc(Oc3ccc(N)cc3)c2)cc1` gave an AC35 of 6.82 µM. With `C[C@H](O)C#Cc1ccc2c(c1)O[C@@H](CN(C)Cc1ccc(-c3ccccc3)cc1)[C@H](C)CN([C@@H](C)CO)S2(=O)=O` the AC35 was 14.7 µM and 11.2 µM. In the case of `COC1C(O)C(C)OC(OC2CCC3(C)C(CCC4C3C(O)CC3(C)C(C5=CC(=O)OC5)CCC43O)C2)C1O` (centres undefined), the AC35 is reported as 0.244 µM. Compound `CCCCCCCCCCCCCCCCn1cc[n+](C)c1` has an AC35 of 10.5 µM. For `COc1ccc(OC)c(Cc2cnc3nc(N)nc(N)c3c2C)c1`, the AC35 was 0.151 µM. With `CCN1CCS/C1=C\C=C\C1=[N+](CC)CCS1` the AC35 was 11.2 µM.
